Measured values from patent publication US7585859B2, “PDE4B inhibitors and uses therefor” (Plexxikon, Inc., priority 2004, dated 2009).

Columns and labels:
[1] = molecular target: T1, PDE4B: The catalytic domain of human PDE4B from S152-S528 (Homo sapiens, UniProt Q07343); assay: PDE4 IC50 determination by Scintillation Proximity Assay, PDE4B; assay type: biochemical; details: Table 1B, Formula I compounds; read-out: IC50 PDE4B
T1 construct: His6 (N); thrombin cleavage site (N); made in house; host or cells: E. coli
T1 sequence (Q07343 with tags, fused parts or gaps): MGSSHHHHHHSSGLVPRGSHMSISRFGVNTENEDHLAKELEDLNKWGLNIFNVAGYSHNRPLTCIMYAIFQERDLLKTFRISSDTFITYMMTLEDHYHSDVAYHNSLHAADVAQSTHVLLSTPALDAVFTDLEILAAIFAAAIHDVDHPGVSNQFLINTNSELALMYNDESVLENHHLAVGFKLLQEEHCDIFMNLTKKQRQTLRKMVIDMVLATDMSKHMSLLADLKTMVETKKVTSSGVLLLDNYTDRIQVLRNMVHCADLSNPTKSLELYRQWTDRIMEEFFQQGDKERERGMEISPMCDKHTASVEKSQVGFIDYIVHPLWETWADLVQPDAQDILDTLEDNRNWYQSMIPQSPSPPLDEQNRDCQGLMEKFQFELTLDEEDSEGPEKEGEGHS
Procedure, shortened: (§1)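 Radiometric SPA: PDE4B (80 ng/ml) or PDE4D (4 ng/ml) hydrolysed [^3H]cAMP over 30 min at 30°, and the bead-bound [^3H]AMP was scintillation-counted.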

PDE4D = molecular target: T2, PDE4D (Homo sapiens, UniProt Q08499); assay: PDE4 IC50 determination by Scintillation Proximity Assay, PDE4D; assay type: biochemical; details: Table 1B, Formula I compounds; read-out: IC50 PDE4D
T2 construct: PDE4D: The catalytic domain of human PDE4B from S3 16-V692; His6 (N); thrombin cleavage site (N); made in house; host or cells: E. coli
T2 sequence (Q08499 380-756): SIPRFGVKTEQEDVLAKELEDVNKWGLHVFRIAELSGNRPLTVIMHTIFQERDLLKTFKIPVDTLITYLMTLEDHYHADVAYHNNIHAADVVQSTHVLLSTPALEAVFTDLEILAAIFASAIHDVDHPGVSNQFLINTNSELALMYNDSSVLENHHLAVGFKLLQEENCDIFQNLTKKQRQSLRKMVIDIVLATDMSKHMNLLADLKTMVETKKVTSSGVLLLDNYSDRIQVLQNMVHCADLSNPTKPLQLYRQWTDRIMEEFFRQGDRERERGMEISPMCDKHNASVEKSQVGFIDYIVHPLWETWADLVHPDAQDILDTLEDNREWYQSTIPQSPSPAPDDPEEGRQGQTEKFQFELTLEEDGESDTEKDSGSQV
Procedure, shortened: as §1

IC50 [1] [µM] | IC50 (PDE4D) [µM] | SMILES
< 10 | < 10 | Cc1c(C(=O)c2sc(Nc3ccc(C(=O)NC4CCOC4=O)cc3)c(C#N)c2N)cnn1-c1ccccc1 (stereo not shown) [Compound 1-127, 4-[4-Amino-3-cyano-5-(5-methyl-1-phenyl-1H-pyrazole-4-carbonyl)-thiophen-2-ylamino]-N-(2-oxo-tetrahydro-furan-3-yl)-benzamide]
< 10 | < 10 | Cc1onc(-c2ccccc2)c1C(=O)c1sc(Nc2ccccc2F)c(C#N)c1N [Compound 1-128, 4-Amino-2-(2-fluoro-phenylamino)-5-(5-methyl-3-phenyl-isoxazole-4-carbonyl)-thiophene-3-carbonitrile]
< 10 | > 10 | COC(=O)C(CCSC)Nc1sc(C(=O)c2c(-c3ccccc3)noc2C)c(N)c1C#N (stereo not shown) [Compound 1-131, 2-[4-Amino-3-cyano-5-(5-methyl-3-phenyl-isoxazole-4-carbonyl)-thiophen-2-ylamino]-4-methylsulfanyl-butyric acid methyl ester]
< 10 | < 10 | COc1ccc(CNc2sc(C(=O)c3c(-c4ccccc4)noc3C)c(N)c2C#N)cc1OC [Compound 1-132, 4-Amino-2-(3,4-dimethoxy-benzylamino)-5-(5-methyl-3-phenyl-isoxazole-4-carbonyl)-thiophene-3-carbonitrile]
< 10 | < 10 | Cc1onc(-c2ccccc2)c1C(=O)c1sc(Nc2ccc(C(=O)NC3CCOC3=O)cc2)c(C#N)c1N (stereo not shown) [Compound 1-133, 4-[4-Amino-3-cyano-5-(5-methyl-3-phenyl-isoxazole-4-carbonyl)-thiophen-2-ylamino]-N-(2-oxo-tetrahydro-furan-3-yl)-benzamide]
< 10 | > 10 | Cc1onc(-c2ccccc2)c1C(=O)c1sc(NC2CCOC2=O)c(C#N)c1N (stereo not shown) [Compound 1-134, 4-Amino-5-(5-methyl-3-phenyl-isoxazole-4-carbonyl)-2-(2-oxo-tetrahydro-furan-3-ylamino)-thiophene-3-carbonitrile]
< 10 | < 10 | CCOC(=O)c1cc(C(=O)c2sc(NCCN3CCCCC3)c(C#N)c2N)on1 [Compound 1-135, 5-[3-Amino-4-cyano-5-(2-piperidin-1-yl-ethylamino)-thiophene-2-carbonyl]-isoxazole-3-carboxylic acid ethyl ester]
> 10 | > 10 | CCOC(=O)c1cc(C(=O)c2sc(NC(=O)c3ccccc3C)c(C#N)c2N)on1 [Compound 1-136, 5-[3-Amino-4-cyano-5-(2-methyl-benzoylamino)-thiophene-2-carbonyl]-isoxazole-3-carboxylic acid ethyl ester]
< 10 | > 10 | CCOC(=O)c1cc(C(=O)c2sc(NC(CC(C)C)C(=O)OC)c(C#N)c2N)on1 (stereo not shown) [Compound 1-137, 5-[3-Amino-4-cyano-5-(1-methoxycarbonyl-3-methyl-butylamino)-thiophene-2-carbonyl]-isoxazole-3-carboxylic acid ethyl ester]
< 10 | < 10 | CCOC(=O)c1cc(C(=O)c2sc(Nc3ccc(C(=O)NC4CCOC4=O)cc3)c(C#N)c2N)on1 (stereo not shown) [Compound 1-138]
< 10 | > 10 | CCOC(=O)c1cc(C(=O)c2sc(NC3CCOC3=O)c(C#N)c2N)on1 (stereo not shown) [Compound 1-140, 5-[3-Amino-4-cyano-5-(2-oxo-tetrahydro-furan-3-ylamino)-thiophene-2-carbonyl]-isoxazole-3-carboxylic acid ethyl ester]
< 10 | < 10 | COC(=O)C(CC(C)C)Nc1sc(C(=O)c2cc(-c3ccccc3)no2)c(N)c1C#N (stereo not shown) [Compound 1-141, 2-[4-Amino-3-cyano-5-(3-phenyl-isoxazole-5-carbonyl)-thiophen-2-ylamino]-4-methyl-pentanoic acid methyl ester]

The remaining lines, values behind:

SMILES | IC50 [1] [µM] | IC50 (PDE4D) [µM]
COc1ccc(Nc2sc(C(=O)c3coc4ccccc34)c(N)c2C#N)cc1 [Compound 1-105, 4-Amino-5-(benzofuran-3-carbonyl)-2-(4-methoxy-phenylamino)-thiophene-3-carbonitrile] | < 10 | < 10
COC(=O)C(CC(C)C)Nc1sc(C(=O)c2coc3ccccc23)c(N)c1C#N (stereo not shown) [Compound 1-106, 2-[4-Amino-5-(benzofuran-3-carbonyl)-3-cyano-thiophen-2-ylamino]-4-methyl-pentanoic acid methyl ester] | < 10 | > 10
COC(=O)C(CCSC)Nc1sc(C(=O)c2coc3ccccc23)c(N)c1C#N (stereo not shown) [Compound 1-107, 2-[4-Amino-5-(benzofuran-3-carbonyl)-3-cyano-thiophen-2-ylamino]-4-methylsulfanyl-butyric acid methyl ester] | < 10 | < 10
N#Cc1c(Nc2ccc(C(=O)NC3CCOC3=O)cc2)sc(C(=O)c2coc3ccccc23)c1N (stereo not shown) [Compound 1-108, 4-[4-Amino-5-(benzofuran-3-carbonyl)-3-cyano-thiophen-2-ylamino]-N-(2-oxo-tetrahydro-furan-3-yl)-benzamide] | < 10 | < 10
CCc1ccccc1Nc1sc(C(=O)c2coc3ccccc23)c(N)c1C#N [Compound 1-109, 4-Amino-5-(benzofuran-3-carbonyl)-2-(2-ethyl-phenylamino)-thiophene-3-carbonitrile] | < 10 | < 10
COC(=O)C(CC(C)C)Nc1sc(C(=O)c2ccccc2Cl)c(N)c1C#N (stereo not shown) [Compound 1-111, 2-[4-Amino-5-(2-chloro-benzoyl)-3-cyano-thiophene-2-ylamino]-4-methyl-pentanoic acid methyl ester] | < 10 | < 10
COC(=O)C(CCSC)Nc1sc(C(=O)c2ccccc2Cl)c(N)c1C#N (stereo not shown) [Compound 1-112, 2-[4-Amino-5-(2-chloro-benzoyl)-3-cyano-thiophene-2-ylamino]-4-methylsulfanyl-butyric acid methyl ester] | < 10 | < 10
COc1ccc(CNc2sc(C(=O)c3ccccc3Cl)c(N)c2C#N)cc1OC [Compound 1-113, 4-Amino-5-(2-chloro-benzoyl)-2-(3,4-dimethoxy-benzylamino)-thiophene-3-carbonitrile] | < 10 | < 10
N#Cc1c(Nc2ccc(C(=O)NC3CCOC3=O)cc2)sc(C(=O)c2ccccc2Cl)c1N (stereo not shown) [Compound 1-114, 4-[4-Amino-5-(2-chloro-benzoyl)-3-cyano-thiophen-2-ylamino]-N-(2-oxo-tetrahydro-furan-3-yl)-benzamide] | < 10 | < 10
N#Cc1c(NC2CCCC2)sc(C(=O)c2ccccc2Cl)c1N [Compound 1-115, 4-Amino-5-(2-chloro-benzoyl)-2-cyclopentylamino-thiophene-3-carbonitrile] | < 10 | < 10
N#Cc1c(NC2CCOC2=O)sc(C(=O)c2ccccc2Cl)c1N (stereo not shown) [Compound 1-116, 4-Amino-5-(2-chloro-benzoyl)-2-(2-oxo-tetrahydro-furan-3-ylamino)-thiophene-3-carbonitrile] | > 10 | > 10
COc1ccc(Nc2sc(C(=O)c3cccc(Cl)c3)c(N)c2C#N)cc1 [Compound 1-117, 4-Amino-5-(3-chloro-benzoyl)-2-(4-methoxy-phenylamino)-thiophene-3-carbonitrile] | < 10 | < 10
COC(=O)C(CC(C)C)Nc1sc(C(=O)c2cccc(Cl)c2)c(N)c1C#N (stereo not shown) [Compound 1-118, 2-[4-Amino-5-(3-chloro-benzoyl)-3-cyano-thiophen-2-ylamino]-4-methyl-pentanoic acid methyl ester] | < 10 | > 10
N#Cc1c(Nc2ccc(C(=O)NC3CCOC3=O)cc2)sc(C(=O)c2cccc(Cl)c2)c1N (stereo not shown) [Compound 1-119, 4-[4-Amino-5-(3-chloro-benzoyl)-3-cyano-thiophen-2-ylamino]-N-(2-oxo-tetrahydro-furan-3-yl)-benzamide] | < 10 | < 10
N#Cc1c(NC2CCCC2)sc(C(=O)c2cccc(Cl)c2)c1N [Compound 1-120, 4-Amino-5-(3-chloro-benzoyl) 2-cyclopentylamino-thiophene-3-carbonitrile] | < 10 | < 10
COC(=O)C(CC(C)C)Nc1sc(C(=O)c2csc3ccccc23)c(N)c1C#N (stereo not shown) [Compound 1-121, 2-[4-Amino-5-(benzo[b]thiophene-3-carbonyl)-3-cyano-thiophen-2-ylamino]-4-methyl-pentanoic acid methyl ester] | < 10 | < 10
COC(=O)C(CCSC)Nc1sc(C(=O)c2csc3ccccc23)c(N)c1C#N (stereo not shown) [Compound 1-122, 2-[4-Amino-5-(benzo[b]thiophene-3-carbonyl)-3-cyano-thiophen-2-ylamino]-4-methylsulfanyl-butyric acid methyl ester] | < 10 | < 10
N#Cc1c(Nc2ccc(C(=O)NC3CCOC3=O)cc2)sc(C(=O)c2csc3ccccc23)c1N (stereo not shown) [Compound 1-123, 4-[4-Amino-5-(benzo[b]thiophene-3-carbonyl)-3-cyano-thiophen-2-ylamino]-N-(2-oxo-tetrahydro-furan-3-yl)-benzamide] | < 10 | < 10
N#Cc1c(NC2CCCC2)sc(C(=O)c2csc3ccccc23)c1N [Compound 1-124, 4-Amino-5-(benzo[b]thiophene-3-carbonyl)-2-cyclopentylamino-thiophene-3-carbonitrile] | < 10 | > 10
COC(=O)c1ccccc1Nc1sc(C(=O)c2cnn(-c3ccccc3)c2C)c(N)c1C#N [Compound 1-126, 2-[4-Amino-3-cyano-5-(5-methyl-1-phenyl-1H-pyrazole-4-carbonyl)-thiophen-2-ylamino]-benzoic acid methyl ester] | < 10 | < 10
